Assay [1] is filed under the species Rattus norvegicus. The assay can be described thus: Intrinsic activity in rat aorta was determined. The class given is functional.
The species named for assay [2] is Rattus norvegicus. The assay can be described thus: Negative logarithm of the molar concentration required to relax rat aorta precontracted with 30 mM KCL by 50% of intrinsic activity. It counts as functional.

Molecules are shown by their SMILES.

`N#Cc1ccc2c(c1)C(c1cccc[n+]1[O-])=CC(CF)(CF)O2` gave an Intrinsic activity in the assay listed under Rattus norvegicus [1] of 71.1%. For the same compound, the EC50 (usually the concentration at which the effect is half-maximal) in the assay listed under Rattus norvegicus [2] was 16.6 nM. In the case of `O=[N+]([O-])c1ccc2c(c1)C(c1cccc[n+]1[O-])=CC(CF)(CF)O2`, the Intrinsic activity in the assay filed under Rattus norvegicus [1] was determined as 66.3%. Also, in the assay filed under Rattus norvegicus [2], a half-maximal effect (EC50) was put at 1.74 nM. In the same order, the values of `O=C([N-][n+]1ccccc1C1=CC(CF)(CF)Oc2ccc([N+](=O)[O-])cc21)Nc1ccccc1` are 89.5% and 9120 nM. The like results for `N#C[N-][n+]1ccccc1C1=CC(CF)(CF)Oc2ccc(C(F)(F)F)cc21` were, in that order, 62.3% and 9.55 nM.

As to `CC1(C)C=C(c2cccc[n+]2[N-]C#N)c2cc(C#N)ccc2O1`, the Intrinsic activity in the assay filed under Rattus norvegicus [1] was 63.2%. In the assay listed under Rattus norvegicus [2], the EC50 was 97.7 nM. In the assay filed under Rattus norvegicus [1], `N#C[N-][n+]1ccccc1C1=CC(CF)(CF)Oc2ccc([N+](=O)[O-])cc21` came in with an Intrinsic activity of 72.7%. Besides, in the assay listed under Rattus norvegicus [2], the EC50 was 4.57 nM. Consider `O=[N+]([O-])[N-][n+]1ccccc1C1=CC(CF)(CF)Oc2ccc([N+](=O)[O-])cc21`, for which, in the assay listed under Rattus norvegicus [1], the Intrinsic activity is given as 98.5%. The midpoint of the response in the assay listed under Rattus norvegicus [2], the EC50, lay at 1000 nM. For `O=C([N-][n+]1ccccc1C1=CC(CF)(CF)Oc2ccc([N+](=O)[O-])cc21)c1ccccc1`, in the assay listed under Rattus norvegicus [2], the EC50 was over 10000 nM. On to `N#C[N-][n+]1ccccc1C1=CC(CF)(CF)Oc2ccc(C(F)(F)C(F)(F)F)cc21`, for which the Intrinsic activity in the assay listed under Rattus norvegicus [1] is given as 71.9%. The compound further showed an EC50 in the assay listed under Rattus norvegicus [2] of 2.95 nM. With `N#C[N-][n+]1ccccc1C1=CC(CF)(CF)Oc2ccc(C(F)(F)C(F)(F)C(F)(F)F)cc21`, the Intrinsic activity in the assay listed under Rattus norvegicus [1] is 74.6%. The compound also gave an EC50 in the assay filed under Rattus norvegicus [2] of 17.8 nM.

Turning to `CC1(C)C=C(c2cccc[n+]2[O-])c2cc(C#N)ccc2O1`, the Intrinsic activity in the assay listed under Rattus norvegicus [1] worked out at 78.2%. Also, the EC50 in the assay listed under Rattus norvegicus [2] is 24.5 nM. Regarding `N#C[N-][n+]1ccccc1C1=CC(CF)(CF)Oc2ccc(C#N)cc21`, the Intrinsic activity in the assay listed under Rattus norvegicus [1] was determined as 76.9%. In the assay filed under Rattus norvegicus [2], the half-maximal effective concentration (EC50) is 51.3 nM. As to `CC(=O)[N-][n+]1ccccc1C1=CC(CF)(CF)Oc2ccc([N+](=O)[O-])cc21`, the EC50 in the assay filed under Rattus norvegicus [2] was over 10000 nM. On to `CS(=O)(=O)[N-][n+]1ccccc1C1=CC(CF)(CF)Oc2ccc([N+](=O)[O-])cc21`, for which the Intrinsic activity in the assay listed under Rattus norvegicus [1] worked out at 74.2%. The compound also showed an EC50 in the assay filed under Rattus norvegicus [2] of 3020 nM.

Compound `CC1(C)Oc2ccc(C#N)cc2[C@@H](N2CCCC2=O)[C@@H]1O` [LEVCROMAKALIM] returned an Intrinsic activity in the assay listed under Rattus norvegicus [1] of 72.5%. Further, a half-maximal response in the assay listed under Rattus norvegicus [2] (EC50) required 162 nM.

The values above are taken from ChEMBL document CHEMBL1127232, “Synthesis and vasorelaxant activity of N-imino-2-(benzopyran-4-yl)pyridine K+ channel openers” (Bioorg Med Chem Lett, 1994).
